Where two headings read alike, the source gives them in different places.
Key:
[1] = Unna 1916; cited from earlier work
[2] = tested on: HaCaT cells; experiment: Antiproliferative Activity Assay, HaCaT cell growth; type: cell-based, human; conditions: 48 h
Procedure: HaCaT cells, a rapidly multiplying human keratinocyte cell line, were grown in Dulbecco's modified Eagle medium (DMEM), No. 041-11965A, Gibco) supplemented with 10% fetal calf serum, penicillin (100U/ml), streptomycin (100 μg/ml) in a humidified incubator containing 8% CO2 at 37° C. Cells ([…] /1.1 ml suspension per well) were seeded on 24-wells-multidishes and grown in DMEM. After 24 hours growth the medium was replaced with fresh medium and the test compounds (0.1-5 μM) were added. […] Controls were performed with DMSO or with medium alone. Forty-eight hours after addition of the test compound to the culture, the medium was removed and each well was rinsed with 100 μL PBS. The cells were then incubated with sterile 0.5% trypsin, 0.2% EDTA in PBS for 20 minutes at 37° C. The detached cells from each well were suspended in DMEM and dispersed into single cells by gentle pipetting through an Eppendorf pipette, and cell growth was determined directly by counting the keratinocytes in a Neubauer counting chamber using phase contrast microscopy. Inhibition was calculated by comparison of the mean values of the test compound (N=3) with the control (N=6-8) activity: (1-test compound/control)×100.

[3] = molecular target: T1, 5-LO (Bos taurus, UniProt F1MQ78); experiment: Bovine PMNL 5-Lipoxygenase Assay (inhibition of 5-HETE and LTB4 biosynthesis); type: cell-based; conditions: for inhibition at 30 µM: PMNL, read-out: 5-LO percent inhibition
T1 construct: Polymorphonuclear leukocytes (PMNL) were prepared from sodium EDTA-anticoagulated bovine blood; endogenous in cells; host or cells: bovine polymorphonuclear leukocytes isolated from EDTA-anticoagulated blood (intact cells, A23187-stimulated)
T1 sequence (F1MQ78 1-674): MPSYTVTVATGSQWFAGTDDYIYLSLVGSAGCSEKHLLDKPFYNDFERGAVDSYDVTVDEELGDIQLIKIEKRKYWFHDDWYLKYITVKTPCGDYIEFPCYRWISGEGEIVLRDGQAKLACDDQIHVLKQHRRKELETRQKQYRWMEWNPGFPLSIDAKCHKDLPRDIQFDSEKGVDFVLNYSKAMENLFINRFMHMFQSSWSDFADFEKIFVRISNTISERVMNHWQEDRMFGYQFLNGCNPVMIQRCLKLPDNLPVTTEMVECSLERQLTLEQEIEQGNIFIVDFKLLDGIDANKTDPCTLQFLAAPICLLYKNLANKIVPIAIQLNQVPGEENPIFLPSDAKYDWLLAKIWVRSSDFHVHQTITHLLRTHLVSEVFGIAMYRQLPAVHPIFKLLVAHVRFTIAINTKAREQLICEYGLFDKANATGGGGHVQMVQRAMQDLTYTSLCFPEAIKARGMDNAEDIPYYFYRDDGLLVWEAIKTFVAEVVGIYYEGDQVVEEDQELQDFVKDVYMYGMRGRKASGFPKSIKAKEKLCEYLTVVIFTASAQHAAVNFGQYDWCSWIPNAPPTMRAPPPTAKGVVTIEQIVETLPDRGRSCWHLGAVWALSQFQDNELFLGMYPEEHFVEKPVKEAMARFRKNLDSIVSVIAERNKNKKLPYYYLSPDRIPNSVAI
Procedure: Polymorphonuclear leukocytes (PMNL) were prepared from sodium EDTA-anticoagulated bovine blood, essentially as described by Walstra, P. et al., "Leukotriene Formation by Bovine Polymorphonuclear Leukocytes", Biochim. Biophys. Acta, 795,499-503 (1984). Contaminating platelets were removed by repeated centrifugations at 100 g for 20 min. The purified PMN leukocytes were suspended at a concentration of 1×10^7 cells/ml in phosphate buffered saline (PBS, composed of 8.00 g NaCl, 0.20 g KCl, 1.00 g Na2 HPO4 .cndot.2H2 O, 0.15 g NaH2 PO4 .cndot.H2 O, 0.20 g KH2 PO4, adjusted to pH 7.4 with 3 N NH3 in a final volume of 1000 ml of double distilled H2 O). Cell counts were conducted with a Sysmex microcellcounter CC-130. Preincubation was performed with 2.4 ml of the suspension and 10 μl of a DMSO stock solution of each test compound at the desired concentration in PBS or vehicle control (DMSO at final concentration of 0.4%) for 15 min at 37° C. in a shaking water bath. The syntheses of LTB 4 and 5-HETE were stimulated by the addition of CaCl2 and Ca-ionophore A23187 (final concentrations 2 mM and 20 μM, respectively), and the incubation was conducted for 10 min at 37° C. 5-LO product formation was terminated by the addition of 3.0 ml of methanol/acetonitrile (1+1) containing NDGA as radical scavenger (final concentration 0.01 mM) and prostaglandin B2 PG B2 as chromatographic marker (final concentration 0.3 μM). The incubation mixture was kept in an ice bath for 20 min and then centrifuged at 4000 g for 5 min at 0° C. The supernatant was diluted with 5 ml of water and passed through a prewashed (10 ml of methanol and 5 ml of water, sequentially) octadecylsilane reversed phase cartridge (Baker). The eicosanoids were eluted with 3 ml of methanol, diluted with 3 ml of water and subjected to reversed phase high performance liquid chrometography (HPLC) analysis, performed on a 250×4 mm column packed with Nucleosil C18 (7 μm particles; Bischoff, Leonberg, Germany). The isocratic elution conditions of LTB4 were tetrahydrofuran (THF)/methanol/water/acetic acid (25+30+45+0.1), adjusted to pH 5.5 with concentrated NH3, at a flow rate of 0.9 ml/min (Kontron 420 pump), monitored at 280 nm with a Kontron 735 LC UV detector, whereas 5-HETE was monitored at 232 nm using methanol/water/acetic acid (77+23+0.1), pH 5.5,flow rate 1.0ml/min. Data were recorded on a MacLab data acquisition system (WissTech, Germany) and analysis was performed with the application Peaks on an Apple Macintosh Quadra 700 computer. Integrated areas of the peaks were compared to the PGB2 internal standard and to external standards of test samples. Molar absorption coefficients of Samuelsson et al., Borgeat, P. and B. Samuelsson, "Arachidonic Acid Metabolism in Polymorphonuclear Leukocytes: Effects of Ionophore A23187", Proc. Nat. Acad. Sci. USA, 76, 2148-2152 (1979), were used for calculations. Inhibition was calculated by comparison of the mean values of test compound (n=3) with control (n=6-8) activity: (1-test compound/control)×100.
By the above method, the anthracenone derivatives of the invention were evaluated for their ability to inhibit the production of LTB4 and 5-HETE in isolated bovine polymorphonuclear leucocytes (PMNL), see Walstra, P. et al., "Leukotriene Formation by Bovine Polymorphonuclear Leukocytes", Biochim. Biophys. Acta, 795,499-503 (1984); Dannhardt, G. and also M. Lehr, "In-Vitro Evaluation of 5-Lipoxygenase and Cyclo-Oxygenase Inhibitors Using Bovine Neutrophils and Platelets and HPLC", J. Pharm. Pharmacol., 44, 419-424 (1992). LTB4 and 5-HETE concentrations were measured by reversed-phase HPLC with UV detection.

[4] = tested on: LTB4 production in bovine neutrophils; conditions: read-out: Inhibition of production of LTB4, IC50; cited from earlier work
[5] = tested on: LTB4 production in human neutrophils; conditions: depending on cell density, read-out: Inhibition of production of LTB4, IC50; cited from earlier work
[6] = therapeutic application; cited from earlier work
[7] = Homo sapiens, HaCaT, HaCaT cells, N = 3, read-out: AA IC50 (antiproliferative activity)
[8] = HaCaT cells, N = 3, read-out: AA IC50 (antiproliferative activity)

| Structure (SMILES) | IC50 [2, 7] | inhibition at 30 µM [3] | IC50 ([3]; read-out: 5-LO IC50) | other results |
| --- | --- | --- | --- | --- |
| O=C1c2ccccc2Cc2cccc(O)c21 [1-hydroxy-9(10H)-anthracenone] | – | – | – | Therapeutic effect in psoriasis [1]: effective in the treatment of psoriasis |
| COC(=O)CSC1c2cccc(O)c2C(=O)c2c(O)cccc21 [3-A, reference compound] | 190000 nM | – | – | IC50 [3]: 13000 nM |
| CCOC(=O)CSC1c2cccc(O)c2C(=O)c2c(O)cccc21 [3-B, reference compound] | 4520 nM | 42% | – | – |
| O=C1c2c(O)cccc2C(SCc2ccccc2)c2cccc(O)c21 [4A, reference compound] | – | 46% | – | IC50 ([2]; Homo sapiens, HaCaT, read-out: AA IC50 (antiproliferative activity)): 1400 nM |
| CCCCOC(=O)CSC1c2cccc(O)c2C(=O)c2c(O)cccc21 [Compound 3a] | 2100 nM | 8% | – | – |
| CC(SC1c2cccc(O)c2C(=O)c2c(O)cccc21)C(=O)O (centres unmarked) [Compound 3b] | 200 nM | 28% | – | – |
| COC(=O)CCSC1c2cccc(O)c2C(=O)c2c(O)cccc21 [Compound 3c] | 1100 nM | – | 15000 nM | – |
| CCOC(=O)CCSC1c2cccc(O)c2C(=O)c2c(O)cccc21 [Compound 3d] | 1600 nM | 30% | – | – |
| CCCCOC(=O)CCSC1c2cccc(O)c2C(=O)c2c(O)cccc21 [Compound 3e] | 2300 nM | 62% | – | – |
| O=C1c2c(O)cccc2C(SCCCS)c2cccc(O)c21 [Compound 3f] | 770 nM | 14% | – | – |
| COc1ccccc1SC1c2cccc(O)c2C(=O)c2c(O)cccc21 [Compound 3i] | 4250 nM | – | 6300 nM | – |
| COc1cccc(SC2c3cccc(O)c3C(=O)c3c(O)cccc32)c1 [Compound 3j] | 1800 nM | 100% | – | – |
| COc1ccc(SC2c3cccc(O)c3C(=O)c3c(O)cccc32)cc1 [Compound 3k] | 1690 nM | – | 3200 nM | – |
| Nc1ccccc1SC1c2cccc(O)c2C(=O)c2c(O)cccc21 [Compound 3l] | 100 nM | – | 2400 nM | IC50 ([2]; HaCaT cells, N = 3, listed as 31, read-out: AA IC50 (antiproliferative activity)): ≤ 100 nM |
| Nc1cccc(SC2c3cccc(O)c3C(=O)c3c(O)cccc32)c1 [Compound 3m] | 1900 nM | – | 2400 nM | – |
| Nc1ccc(SC2c3cccc(O)c3C(=O)c3c(O)cccc32)cc1 [Compound 3n] | 900 nM | – | 7500 nM | – |
| O=C1c2c(O)cccc2C(Sc2ccccc2O)c2cccc(O)c21 [Compound 4a] | 1750 nM | – | 5000 nM | – |
| O=C1c2c(O)cccc2C(Sc2ccc(O)cc2)c2cccc(O)c21 [Compound 4b, 1,8-Dihydroxy-10-[(4-hydroxyphenyl)thio]-9(10H)-anthracenone] | < 100 nM | – | 2400 nM | IC50 [2, 8]: ≤ 100 nM |
| O=C1c2c(O)cccc2C(Sc2ccccc2S)c2cccc(O)c21 [Compound 4c] | 100 nM | – | – | IC50 [2, 8]: ≤ 100 nM |
| O=C1c2c(O)cccc2C(Sc2cccc(S)c2)c2cccc(O)c21 [Compound 4d] | > 5000 nM | – | – | – |
| O=C1c2c(O)cccc2Cc2cccc(O)c21 [anthralin, 1,8-dihydroxy-9(10H)-anthracenone] | 600 nM | – | 37000 nM | IC50 [4]: 37000 nM; IC50 [5]: 7000 to 74000 nM; Irritation / side effects [6]: non-affected skin surrounding a psoriatic lesion to which anthralin is applied frequently becomes irritated; Therapeutic effect in psoriasis [1]: effective in the treatment of psoriasis |
| CCCC(=O)C1c2cccc(O)c2C(=O)c2c(O)cccc21 [butantrone, 10-Butyryl-Dithranol] | – | – | – | Irritation / side effects [6]: elicits a widespread and delayed irritation effect in many patients |
